Results published in US20250230193A1, “CYCLIC COMPOUND HAVING SELECTIVE KRAS INHIBITORY EFFECT ON HRAS AND NRAS” (CHUGAI SEIYAKU KABUSHIKI KAISHA, priority 2022, published 2025).

Assays:
[1] = target: GDP-bound HRAS wild-type protein (Homo sapiens, UniProt P01112); experiment: Binding to HRAS by surface plasmon resonance (SPR), Single Cycle Kinetics; details: KD ratio, GDP-bound HRAS wild-type vs GDP-bound KRAS wild-type, SPR
[2] = target: GDP-bound NRAS wild-type protein (Homo sapiens, UniProt P01111); experiment: Binding to NRAS by surface plasmon resonance (SPR), Single Cycle Kinetics; details: KD ratio, GDP-bound NRAS wild-type vs GDP-bound KRAS wild-type, SPR
Chain of GDP-bound NRAS wild-type protein (P01111 whole entry): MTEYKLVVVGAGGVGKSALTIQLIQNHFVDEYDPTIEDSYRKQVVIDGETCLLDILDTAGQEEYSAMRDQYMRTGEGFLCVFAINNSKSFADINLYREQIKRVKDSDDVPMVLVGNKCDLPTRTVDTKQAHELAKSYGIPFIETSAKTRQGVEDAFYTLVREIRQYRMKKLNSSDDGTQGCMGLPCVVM

Chain of GDP-bound HRAS wild-type protein (P01112 whole entry): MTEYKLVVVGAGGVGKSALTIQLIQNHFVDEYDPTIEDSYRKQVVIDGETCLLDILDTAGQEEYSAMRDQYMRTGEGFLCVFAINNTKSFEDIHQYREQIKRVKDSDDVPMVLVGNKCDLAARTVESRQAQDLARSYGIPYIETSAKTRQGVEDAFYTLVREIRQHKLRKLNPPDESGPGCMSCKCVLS

Row | SMILES | HRAS/KRAS (ratio of KD value with respect to HRAS to KD value with respect to KRAS) [1] | NRAS/KRAS (ratio of KD value with respect to NRAS to KD value with respect to KRAS) [2]
1 | CCO[C@@H]1C[C@H]2C(=O)NC3(CCCC3)C(=O)N(C)[C@@H](C3CCCC3)C(=O)N(C)[C@H](C(=O)N(C)C)CC(=O)N(C)[C@@H](CC(C)C)C(=O)N[C@@H]([C@@H](C)CC)C(=O)N(C)CC(=O)N(C)[C@H]3C/C=C\CCN(C3=O)[C@@H](Cc3ccc(C(F)(F)F)cc3)C(=O)N(C)CC(=O)N[C@@H](CCc3cc(F)c(C(F)(F)F)c(F)c3)C(=O)N2C1 [PP1105] | A (a compound having 10 or more and less than 20 is denoted as A) | A (a compound having 10 or more and less than 20 is denoted as A)
2 | CC[C@H](C)[C@@H]1NC(=O)[C@H](CC)N(C)C(=O)C[C@@H](C(=O)N(C)C)N(CC)C(=O)[C@H](C2CCCC2)N(C)C(=O)C2(CCC2)NC(=O)[C@@H]2CCCN2C(=O)[C@H](CCc2cc(F)c(C(F)(F)F)c(F)c2)NC(=O)CN(C)C(=O)[C@H](Cc2ccc(C(F)(F)F)cc2)N2CC/C=C\C[C@@H](C2=O)N(C)C(=O)CN(C)C1=O [PP1106] | A (a compound having 10 or more and less than 20 is denoted as A) | A (a compound having 10 or more and less than 20 is denoted as A)
3 | CCO[C@@H]1C[C@H]2C(=O)NC3(CCC3)C(=O)N(C)[C@@H](C3CCCC3)C(=O)N(C)[C@H](C(=O)N(C)C)CC(=O)N(C)[C@@H](CC(C)C)C(=O)N[C@@H]([C@@H](C)CC)C(=O)N(C)CC(=O)N(C)[C@H]3C/C=C\CCN(C3=O)[C@@H](Cc3ccc(C(F)(F)F)cc3)C(=O)N(C)CC(=O)N[C@@H](CCc3cc(F)c(C(F)(F)F)c(F)c3)C(=O)N2C1 [PP1107] | A (a compound having 10 or more and less than 20 is denoted as A) | A (a compound having 10 or more and less than 20 is denoted as A)
4 | CCO[C@@H]1C[C@H]2C(=O)NC3(CCC3)C(=O)N(C)[C@@H](C3CCCC3)C(=O)N(C)[C@H](C(=O)N(C)C)CC(=O)N(C)[C@@H](C)C(=O)N[C@@H]([C@@H](C)CC)C(=O)N(C)CC(=O)N(C)[C@H]3C/C=C\CCN(C3=O)[C@@H](Cc3ccc(C(F)(F)F)cc3)C(=O)N(C)CC(=O)N[C@@H](CCc3cc(F)c(C(F)(F)F)c(F)c3)C(=O)N2C1 [PP1108] | A (a compound having 10 or more and less than 20 is denoted as A) | A (a compound having 10 or more and less than 20 is denoted as A)
5 | CCO[C@@H]1C[C@H]2C(=O)NC3(CCC3)C(=O)N(C)[C@@H](C3CCCC3)C(=O)N(C)[C@H](C(=O)N(C)C)CC(=O)N(C)[C@@H](C(C)C)C(=O)N[C@@H]([C@@H](C)CC)C(=O)N(C)CC(=O)N(C)[C@H]3C/C=C\CCN(C3=O)[C@@H](Cc3ccc(C(F)(F)F)cc3)C(=O)N(C)CC(=O)N[C@@H](CCc3cc(F)c(C(F)(F)F)c(F)c3)C(=O)N2C1 [PP1109] | B (a compound having 3 or more and less than 10 is denoted as B) | A (a compound having 10 or more and less than 20 is denoted as A)
6 | CCC[C@H]1C(=O)N[C@@H]([C@@H](C)CC)C(=O)N(C)CC(=O)N(C)[C@H]2C/C=C\CCN(C2=O)[C@@H](Cc2ccc(C(F)(F)F)cc2)C(=O)N(C)CC(=O)N[C@@H](CCc2cc(F)c(C(F)(F)F)c(F)c2)C(=O)N2C[C@H](OCC)C[C@H]2C(=O)NC2(CCC2)C(=O)N(C)[C@@H](C2CCCC2)C(=O)N(C)[C@H](C(=O)N(C)C)CC(=O)N1C [PP1110] | B (a compound having 3 or more and less than 10 is denoted as B) | A (a compound having 10 or more and less than 20 is denoted as A)
7 | CCO[C@@H]1C[C@H]2C(=O)NC3(CCC3)C(=O)N(C)[C@@H](C3CCCC3)C(=O)N(C)[C@H](C(=O)N(C)C)CC(=O)N(C)[C@@H](CC3CC3)C(=O)N[C@@H]([C@@H](C)CC)C(=O)N(C)CC(=O)N(C)[C@H]3C/C=C\CCN(C3=O)[C@@H](Cc3ccc(C(F)(F)F)cc3)C(=O)N(C)CC(=O)N[C@@H](CCc3cc(F)c(C(F)(F)F)c(F)c3)C(=O)N2C1 [PP1111] | A (a compound having 10 or more and less than 20 is denoted as A) | A (a compound having 10 or more and less than 20 is denoted as A)
8 | CCO[C@@H]1C[C@H]2C(=O)NC3(CCC3)C(=O)N(C)[C@@H](C3CCCC3)C(=O)N(C)[C@H](C(=O)N(C)C)CC(=O)N(C)[C@@H](CC3CCCC3)C(=O)N[C@@H]([C@@H](C)CC)C(=O)N(C)CC(=O)N(C)[C@H]3C/C=C\CCN(C3=O)[C@@H](Cc3ccc(C(F)(F)F)cc3)C(=O)N(C)CC(=O)N[C@@H](CCc3cc(F)c(C(F)(F)F)c(F)c3)C(=O)N2C1 [PP1112] | B (a compound having 3 or more and less than 10 is denoted as B) | A (a compound having 10 or more and less than 20 is denoted as A)
9 | CCO[C@@H]1C[C@H]2C(=O)NC3(CCC3)C(=O)N(C)[C@@H](C3CCCC3)C(=O)N(C)[C@H](C(=O)N(C)C)CC(=O)N(C)[C@@H](COC)C(=O)N[C@@H]([C@@H](C)CC)C(=O)N(C)CC(=O)N(C)[C@H]3C/C=C\CCN(C3=O)[C@@H](Cc3ccc(C(F)(F)F)cc3)C(=O)N(C)CC(=O)N[C@@H](CCc3cc(F)c(C(F)(F)F)c(F)c3)C(=O)N2C1 [PP1113] | A (a compound having 10 or more and less than 20 is denoted as A) | A (a compound having 10 or more and less than 20 is denoted as A)
10 | C=CC[C@H]1C(=O)N[C@@H]([C@@H](C)CC)C(=O)N(C)CC(=O)N(C)[C@H]2C/C=C\CCN(C2=O)[C@@H](Cc2ccc(C(F)(F)F)cc2)C(=O)N(C)CC(=O)N[C@@H](CCc2cc(F)c(C(F)(F)F)c(F)c2)C(=O)N2C[C@H](OCC)C[C@H]2C(=O)NC2(CCC2)C(=O)N(C)[C@@H](C2CCCC2)C(=O)N(C)[C@H](C(=O)N(C)C)CC(=O)N1C [PP1114] | A (a compound having 10 or more and less than 20 is denoted as A) | A (a compound having 10 or more and less than 20 is denoted as A)
11 | C#CC[C@H]1C(=O)N[C@@H]([C@@H](C)CC)C(=O)N(C)CC(=O)N(C)[C@H]2C/C=C\CCN(C2=O)[C@@H](Cc2ccc(C(F)(F)F)cc2)C(=O)N(C)CC(=O)N[C@@H](CCc2cc(F)c(C(F)(F)F)c(F)c2)C(=O)N2C[C@H](OCC)C[C@H]2C(=O)NC2(CCC2)C(=O)N(C)[C@@H](C2CCCC2)C(=O)N(C)[C@H](C(=O)N(C)C)CC(=O)N1C [PP1115] | A (a compound having 10 or more and less than 20 is denoted as A) | A (a compound having 10 or more and less than 20 is denoted as A)
12 | CCO[C@@H]1C[C@H]2C(=O)NC3(CCC3)C(=O)N(C)[C@@H](C3CCCC3)C(=O)N(C)[C@H](C(=O)N(C)C)CC(=O)N(C)[C@@H](Cc3ccccc3)C(=O)N[C@@H]([C@@H](C)CC)C(=O)N(C)CC(=O)N(C)[C@H]3C/C=C\CCN(C3=O)[C@@H](Cc3ccc(C(F)(F)F)cc3)C(=O)N(C)CC(=O)N[C@@H](CCc3cc(F)c(C(F)(F)F)c(F)c3)C(=O)N2C1 [PP1116] | A (a compound having 10 or more and less than 20 is denoted as A) | A (a compound having 10 or more and less than 20 is denoted as A)
13 | CCO[C@@H]1C[C@H]2C(=O)NC3(CCC3)C(=O)N(C)[C@@H](C3CCCC3)C(=O)N(C)[C@H](C(=O)N(C)C)CC(=O)N(C)[C@@H](CC(C)(C)C)C(=O)N[C@@H]([C@@H](C)CC)C(=O)N(C)CC(=O)N(C)[C@H]3C/C=C\CCN(C3=O)[C@@H](Cc3ccc(C(F)(F)F)cc3)C(=O)N(C)CC(=O)N[C@@H](CCc3cc(F)c(C(F)(F)F)c(F)c3)C(=O)N2C1 [PP1117] | A (a compound having 10 or more and less than 20 is denoted as A) | A (a compound having 10 or more and less than 20 is denoted as A)
14 | CCO[C@@H]1C[C@H]2C(=O)NC3(CCC3)C(=O)N(C)[C@@H](C3CCCC3)C(=O)N(C)[C@H](C(=O)N(C)C)CC(=O)N(C)[C@@H](CC3CCC3)C(=O)N[C@@H]([C@@H](C)CC)C(=O)N(C)CC(=O)N(C)[C@H]3C/C=C\CCN(C3=O)[C@@H](Cc3ccc(C(F)(F)F)cc3)C(=O)N(C)CC(=O)N[C@@H](CCc3cc(F)c(C(F)(F)F)c(F)c3)C(=O)N2C1 [PP1118] | B (a compound having 3 or more and less than 10 is denoted as B) | A (a compound having 10 or more and less than 20 is denoted as A)
15 | CCO[C@@H]1C[C@H]2C(=O)NC3(CCC3)C(=O)N(C)[C@@H](C3CCCC3)C(=O)N(C)[C@H](C(=O)N(C)C)CC(=O)N(C)[C@@H](CSC)C(=O)N[C@@H]([C@@H](C)CC)C(=O)N(C)CC(=O)N(C)[C@H]3C/C=C\CCN(C3=O)[C@@H](Cc3ccc(C(F)(F)F)cc3)C(=O)N(C)CC(=O)N[C@@H](CCc3cc(F)c(C(F)(F)F)c(F)c3)C(=O)N2C1 [PP1119] | A (a compound having 10 or more and less than 20 is denoted as A) | A (a compound having 10 or more and less than 20 is denoted as A)
